# In PubChem BioAssay AID328 (DTP/NCI, 2004):
# Several values for one entry are separate records, joined by “and”; a condition that tells them apart may be missing. Equal entries are not always repeated. Inconclusive results and toxic doses are left out.
# Tested on: BDF1 mice, P388 leukemia ip, median survival T/C
# Experiment: NCI In Vivo Anticancer Drug Screen. Data for tumor model P388 Leukemia (intraperitoneal) in B6D2F1 (BDF1) mice
# Conditions: endpoint: median survival time, higher = longer survival
# Summary of the method: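 Mice carrying the transplantable tumour receive compound or vehicle. Survival is followed in each arm, and the treated measure is divided by the vehicle measure.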
# [1] = dose: 12.5 mg/kg/injection, schedule: Q01DX009 (ip), vehicle: Klucel (hydroxypropylcellulose) (HPC)
# [2] = dose: 200.0 mg/kg/injection, schedule: Q01DX009 (ip), vehicle: Klucel (hydroxypropylcellulose) (HPC)
# [3] = dose: 25.0 mg/kg/injection, schedule: Q01DX009 (ip), vehicle: Klucel (hydroxypropylcellulose) (HPC)
# [4] = dose: 100.0 mg/kg/injection, schedule: Q04DX003 (ip), vehicle: saline with Tween-80
# [5] = dose: 200.0 mg/kg/injection, schedule: Q04DX003 (ip), vehicle: saline with Tween-80
# [6] = dose: 100.0 mg/kg/injection, schedule: Q01DX009 (ip), vehicle: Klucel (hydroxypropylcellulose) (HPC)
# [7] = dose: 100.0 mg/kg/injection, schedule: Q04DX003 (ip), vehicle: Klucel (hydroxypropylcellulose) (HPC)
# [8] = dose: 200.0 mg/kg/injection, schedule: Q04DX003 (ip), vehicle: Klucel (hydroxypropylcellulose) (HPC)
# [9] = dose: 400.0 mg/kg/injection, schedule: Q04DX003 (ip), vehicle: Klucel (hydroxypropylcellulose) (HPC)
# [10] = dose: 50.0 mg/kg/injection, schedule: Q01DX009 (ip), vehicle: saline with Tween-80
# [11] = dose: 100.0 mg/kg/injection, schedule: Q01DX009 (ip), vehicle: saline with Tween-80
# [12] = dose: 200.0 mg/kg/injection, schedule: Q01DX009 (ip), vehicle: saline with Tween-80
# [13] = dose: 50.0 mg/kg/injection, schedule: Q01DX009 (ip), vehicle: Klucel (hydroxypropylcellulose) (HPC)
# [14] = dose: 12.5 mg/kg/injection, schedule: Q01DX009 (ip), vehicle: saline with Tween-80
# [15] = dose: 25.0 mg/kg/injection, schedule: Q01DX009 (ip), vehicle: saline with Tween-80
smiles,measurement,setting,value
CC1=Nc2ccccc2/C1=C\c1c(C)[nH]c2ccccc12,T/C,"dose: 5.5 mg/kg/injection, schedule: Q01DX009 (ip), vehicle: Klucel (hydroxypropylcellulose) (HPC)",109 % of control
same,T/C,"dose: 8.2 mg/kg/injection, schedule: Q01DX009 (ip), vehicle: Klucel (hydroxypropylcellulose) (HPC)",118 % of control
same,T/C,[1],161 % of control
same,T/C,"dose: 33.0 mg/kg/injection, schedule: Q01DX009 (ip), vehicle: Klucel (hydroxypropylcellulose) (HPC)",103 % of control and 109 % of control
same,T/C,"dose: 75.0 mg/kg/injection, schedule: Q01DX009 (ip), vehicle: Klucel (hydroxypropylcellulose) (HPC)",96 % of control and 113 % of control
same,T/C,[2],154 % of control
CN(C)C=Nc1ccc2c3c(cccc13)CC2,T/C,"dose: 6.25 mg/kg/injection, schedule: Q01DX009 (ip), vehicle: Klucel (hydroxypropylcellulose) (HPC)",103 % of control
same,T/C,[1],99 % of control
same,T/C,"dose: 16.6 mg/kg/injection, schedule: Q01DX009 (ip), vehicle: Klucel (hydroxypropylcellulose) (HPC)",115 % of control
same,T/C,[3],114 % of control
Nc1nc(SCc2ccc([N+](=O)[O-])cc2)c2[nH]cnc2n1,T/C,"dose: 100.0 mg/kg/injection, schedule: Q04DX003 (ip), vehicle: saline sonified",110 % of control
same,T/C,"dose: 200.0 mg/kg/injection, schedule: Q04DX003 (ip), vehicle: saline sonified",110 % of control
same,T/C,"dose: 400.0 mg/kg/injection, schedule: Q04DX003 (ip), vehicle: saline sonified",100 % of control
CN(C)c1ccc(C(=C2C=CC(=[N+](C)C)C=C2)c2ccccc2Cl)cc1,T/C,"dose: 5.0 mg/kg/injection, schedule: Q01DX010 (ip), vehicle: saline",110 % of control
O=C1NC(=O)C(c2ccccc2Cl)N1 (centres undefined),T/C,"dose: 100.0 mg/kg/injection, schedule: Q01DX001 (ip), vehicle: Klucel (hydroxypropylcellulose) (HPC)",104 % of control
same,T/C,"dose: 200.0 mg/kg/injection, schedule: Q01DX001 (ip), vehicle: Klucel (hydroxypropylcellulose) (HPC)",112 % of control
same,T/C,"dose: 400.0 mg/kg/injection, schedule: Q01DX001 (ip), vehicle: Klucel (hydroxypropylcellulose) (HPC)",112 % of control
CC(C)=CC(=O)n1nc2c(c1CC(C)C)C(=O)C(Nc1ccccc1)=CC2=O,T/C,[4],93 % of control
same,T/C,[5],90 % of control
same,T/C,"dose: 400.0 mg/kg/injection, schedule: Q04DX003 (ip), vehicle: saline with Tween-80",100 % of control
C=C1C(=O)OC2/C=C(\C)CC(O)/C=C(/C)CC(OC(=O)C3(C)OC3C)C12 (centres undefined),T/C,"dose: 100.0 mg/kg/injection, schedule: Q04DX002 (ip), vehicle: Klucel (hydroxypropylcellulose) (HPC)",111 % of control
same,T/C,"dose: 200.0 mg/kg/injection, schedule: Q04DX002 (ip), vehicle: Klucel (hydroxypropylcellulose) (HPC)",113 % of control
COc1cc(C#N)ccc1O,T/C,"dose: 100.0 mg/kg/injection, schedule: Q01DX009 (ip), vehicle: gum acacia",100 % of control
same,T/C,"dose: 100.0 mg/kg/injection, schedule: Q04DX003 (ip), vehicle: gum acacia",92 % of control
same,T/C,"dose: 200.0 mg/kg/injection, schedule: Q01DX009 (ip), vehicle: gum acacia",87 % of control
same,T/C,"dose: 200.0 mg/kg/injection, schedule: Q04DX003 (ip), vehicle: gum acacia",88 % of control
CCN(c1ccccc1)c1cc2c(cc1[N+](=O)[O-])no[n+]2[O-],T/C,"dose: 30.0 mg/kg/injection, schedule: Q01DX009 (ip), vehicle: saline with Tween-80",123 % of control
same,T/C,"dose: 60.0 mg/kg/injection, schedule: Q01DX009 (ip), vehicle: saline with Tween-80",113 % of control
O=C(c1ccccc1)N(Nc1ccccc1)c1ccccc1,T/C,[6],95 % of control
same,T/C,[7],100 % of control
same,T/C,[2],109 % of control
same,T/C,[8],100 % of control
same,T/C,"dose: 400.0 mg/kg/injection, schedule: Q01DX009 (ip), vehicle: Klucel (hydroxypropylcellulose) (HPC)",95 % of control
same,T/C,[9],100 % of control
Cc1nc(N)cc(=O)[nH]1,T/C,"dose: 100.0 mg/kg/injection, schedule: Q01DX009 (ip), vehicle: water",105 % of control
same,T/C,"dose: 200.0 mg/kg/injection, schedule: Q01DX009 (ip), vehicle: water",110 % of control
same,T/C,"dose: 400.0 mg/kg/injection, schedule: Q01DX009 (ip), vehicle: water",95 % of control
OCC1CSC2(CCCCC2)N1 (centres undefined),T/C,[10],105 % of control
same,T/C,[11],105 % of control
same,T/C,[12],93 % of control
CCOC(C)C(/C=N/NC(N)=S)=NNC(N)=S (centres undefined),T/C,[3],110 % of control
same,T/C,[13],115 % of control
same,T/C,[10],107 % of control
same,T/C,[11],96 % of control
same,T/C,[7],109 % of control
same,T/C,[4],86 % of control
same,T/C,"dose: 150.0 mg/kg/injection, schedule: Q01DX009 (ip), vehicle: Klucel (hydroxypropylcellulose) (HPC)",110 % of control
same,T/C,[2],122 % of control
same,T/C,[8],100 % of control
same,T/C,[5],91 % of control
same,T/C,[9],104 % of control
O=C1Cc2ccccc21,T/C,[11],96 % of control
same,T/C,[4],100 % of control and 110 % of control
same,T/C,"dose: 177.0 mg/kg/injection, schedule: Q04DX003 (ip), vehicle: saline with Tween-80",100 % of control
same,T/C,[12],107 % of control
same,T/C,[5],110 % of control
same,T/C,"dose: 266.0 mg/kg/injection, schedule: Q04DX003 (ip), vehicle: saline with Tween-80",104 % of control and 109 % of control
same,T/C,"dose: 600.0 mg/kg/injection, schedule: Q04DX003 (ip), vehicle: saline with Tween-80",104 % of control and 122 % of control
CC1NC(=O)OC1C(C)(C)C (centres undefined),T/C,[14],88 % of control
same,T/C,[15],98 % of control
same,T/C,[10],86 % of control and 95 % of control
O=C1c2ccccc2C(=O)c2c(O)c3c(c(O)c21)CC=CC3,T/C,"dose: 3.12 mg/kg/injection, schedule: Q01DX009 (ip), vehicle: saline with Tween-80",107 % of control
same,T/C,"dose: 6.25 mg/kg/injection, schedule: Q01DX009 (ip), vehicle: saline with Tween-80",112 % of control
same,T/C,[14],104 % of control
same,T/C,[15],98 % of control
same,T/C,[10],98 % of control
Cn1cnc([N+](=O)[O-])c1S(=O)(=O)NCN1CCOCC1,T/C,[1],118 % of control
same,T/C,[13],121 % of control
same,T/C,[6],116 % of control
CC1(C)N=C(N)N=C(N)N1c1ccc(CCCCc2ccc(S(=O)(=O)F)cc2Cl)c(Cl)c1,T/C,"dose: 5.0 mg/kg/injection, schedule: Q01DX009 (ip), vehicle: saline with Tween-80",157 % of control
same,T/C,"dose: 7.5 mg/kg/injection, schedule: Q01DX009 (ip), vehicle: saline with Tween-80",150 % of control and 166 % of control
same,T/C,"dose: 8.0 mg/kg/injection, schedule: Q04DX003 (ip), vehicle: saline with Tween-80",168 % of control
same,T/C,"dose: 11.5 mg/kg/injection, schedule: Q01DX009 (ip), vehicle: saline with Tween-80",200 % of control
same,T/C,"dose: 12.0 mg/kg/injection, schedule: Q04DX003 (ip), vehicle: saline with Tween-80",186 % of control
same,T/C,"dose: 17.0 mg/kg/injection, schedule: Q01DX009 (ip), vehicle: saline with Tween-80",188 % of control and 191 % of control
same,T/C,"dose: 18.0 mg/kg/injection, schedule: Q04DX003 (ip), vehicle: saline with Tween-80",200 % of control
same,T/C,[15],208 % of control and 220 % of control
same,T/C,"dose: 26.0 mg/kg/injection, schedule: Q04DX003 (ip), vehicle: saline with Tween-80",200 % of control
same,T/C,"dose: 26.5 mg/kg/injection, schedule: Q04DX003 (ip), vehicle: saline with Tween-80",195 % of control
same,T/C,"dose: 37.0 mg/kg/injection, schedule: Q01DX009 (ip), vehicle: saline with Tween-80",176 % of control
same,T/C,"dose: 40.0 mg/kg/injection, schedule: Q04DX003 (ip), vehicle: saline with Tween-80",209 % of control
same,T/C,[10],241 % of control
same,T/C,"dose: 60.0 mg/kg/injection, schedule: Q04DX003 (ip), vehicle: saline with Tween-80",176 % of control
same,T/C,"dose: 88.0 mg/kg/injection, schedule: Q04DX003 (ip), vehicle: saline with Tween-80",209 % of control
same,T/C,"dose: 90.0 mg/kg/injection, schedule: Q04DX003 (ip), vehicle: saline with Tween-80",180 % of control
same,T/C,[11],116 % of control
same,T/C,"dose: 133.0 mg/kg/injection, schedule: Q04DX003 (ip), vehicle: saline with Tween-80",272 % of control
same,T/C,[5],272 % of control
CCCCCCCCCCCCCCCC[N+](C)(C)C(C)c1ccc(OC)cc1 (centres undefined),T/C,"dose: 6.25 mg/kg/injection, schedule: Q04DX003 (ip), vehicle: saline with Tween-80",123 % of control
